This is an account of results in ChEMBL document CHEMBL6074705, “Novel Triazines as NLRP3 Inhibitors for Treating Multiple Diseases” (ACS Med Chem Lett, 2024).

As a reminder, the EC50 is the concentration needed to bring the measured effect to its halfway point.

The nature of the assay: Inhibition of NLRP3 inflammasome activation in PMA-treated human THP-1 cells assessed as ASC-SPECK formation preincubated for 1 hr followed by gramicidin addition and measured after 3 hrs by immunofluorescence staining based assay. It counts as cell-based.

As for `CCN1CC[C@@]2(C)CCN(c3nnc(-c4ccc(C(F)(F)F)cc4O)c(C)n3)[C@@]2(C)C1`, the concentration giving a half-maximal response (EC50) came out at 5 nM.

On to `Cc1cc(O)c(-c2nnc(N3CC[C@]4(C)CCN(C)C[C@]34C)nc2C)c(F)c1`, for which the EC50 is 5 nM.

Take `Cc1nc(N2CC[C@]3(C)CCN(C)C[C@]23C)nnc1-c1ccc(OC(F)(F)F)cc1O`: the EC50 was found to be 5 nM.

For the compound `Cc1nc(N2CC[C@]3(C)CCN(C)C[C@]23C)nnc1-c1ccc(C(F)(F)F)cc1O`, the EC50 is 5 nM.

Turning to `Cc1nc(N2CC[C@]3(C)CCN(C)C[C@]23C)nnc1-c1ccc(C2CC2)cc1O`, the half-maximal effective concentration (EC50) amounted to 7 nM.

`Cc1nc(N2CC[C@]3(C)CCN(C)C[C@]23C)nnc1-c1ccc(Cl)cc1O`: the concentration for a half-maximal effect (EC50) is 4 nM.
